One data set deals with LUHMES cells. As to the kind of experiment: Identification of non-toxic, effective concentrations of PERK modulators (MTT viability, pEIF2A Western blot). In kind it is cell-based, human. Conditions: for non-toxic concentration effectively modifying EIF2A phosphorylation: LUHMES neurons, 48 h. How it is done:
Nunc™ Nunclon™ Delta 6-well (for protein and mRNA) or 48-well (for cell assays) plates (Thermo Fisher Scientific, Waltham, Mass., USA) were coated with 100 μg/ml poly-L-lysine (Sigma-Aldrich, St. Louis, Mo., USA) and 5 μg/ml fibronectin (Sigma-Aldrich). […] They were then differentiated for 8 days in a medium of DMEM/F12 (Sigma-Aldrich), 1 μg/ml tetracycline, […] and 490 μg/ml dbcAMP into post-mitotic neurons with a dopaminergic phenotype (Lotharius et al. 2005). […] 20 μg of protein (unless indicated otherwise) were adjusted to equal concentrations between samples by dilution with M-PER and subsequently heated at 95° C. for 5 minutes with Roti®-Load 1 (Carl Roth). SDS-PAGE was performed using Any kD™ Mini-PROTEAN® TGX™ Gels (BioRad, Berkeley, Calif., USA) in a tris-glycine running buffer. The protein was blotted onto PVDF membrane (BioRad) at 70 V for 65 minutes on ice. The membrane was blocked with 1× Roti®-Block solution (Carl Roth) for 1 h and then incubated at 4° C. overnight under gentle shaking with the primary antibody (see Table 5) in TBS with 5% BSA (Cell Signaling Technology) and 0.05% TWEEN (Sigma-Aldrich). Thiazolyl Blue Tetrazolium […] (Sigma Aldrich) was dissolved in sterile PBS to a concentration of 5 mg/ml. […] The 48-well culture plate was then incubated at 37° C. for 1 h, the medium removed completely and frozen at −80° C. for 1 h. The plate was then thawed, 300 μl DMSO (AppliChem, Darmstadt, Germany) was added per well and the plate was shaken to ensure complete dissolution of the violet crystals. 100 μl from each well were transferred to a new 96-well plate and the absorbance was read with the FLUOstar Omega (BMG Labtech) platereader at a wavelength of 590 nm (reference wave length 630 nm). The data was analyzed using the MARS Data Analysis Software (BMG Labtech) and Prism 6.
On the technique in general: Immunoblotting shows a protein as a band on a membrane.

Another data set concerns LUHMES neurons. As to the kind of experiment: ATP assay, annonacin-treated LUHMES neurons. Format: cell-based, human. Conditions: annonacin + PERK activator 200 nM or PERK inhibitor 300 nM, 48 h, vs no PERK modulator. How it is done: Nunc™ Nunclon™ Delta 6-well (for protein and mRNA) or 48-well (for cell assays) plates (Thermo Fisher Scientific, Waltham, Mass., USA) were coated with 100 μg/ml poly-L-lysine (Sigma-Aldrich, St. Louis, Mo., USA) and 5 μg/ml fibronectin (Sigma-Aldrich). LUHMES (Lund Human Mesencephalic) cells, derived from human embryonic ventral mesencephalic cells by conditional immortalization (Tet-off v-myc over-expression) were seeded out in a concentration of 130,000 cells/cm^2 to achieve a confluence of 50%. They were then differentiated for 8 days in a medium of DMEM/F12 (Sigma-Aldrich), 1 μg/ml tetracycline, […] and 490 μg/ml dbcAMP into post-mitotic neurons with a dopaminergic phenotype (Lotharius et al. 2005).
For all experiments with annonacin, the medium was replaced during the intoxication period with new medium containing glucose levels reduced to 250 μM, i.e. the physiological concentration in the human brain.
ATP assays were conducted using the ViaLight™ plus kit by Lonza according to the manufacturer's instructions. Luminescence was read with the FLUOstar Omega (BMG Labtech) platereader. The data was analyzed using the MARS Data Analysis Software (BMG Labtech) and Prism 6.

The next data set addresses T1, PERK (Homo sapiens, UniProt Q9NZJ5).
T1 sequence (Q9NZJ5 30-1116): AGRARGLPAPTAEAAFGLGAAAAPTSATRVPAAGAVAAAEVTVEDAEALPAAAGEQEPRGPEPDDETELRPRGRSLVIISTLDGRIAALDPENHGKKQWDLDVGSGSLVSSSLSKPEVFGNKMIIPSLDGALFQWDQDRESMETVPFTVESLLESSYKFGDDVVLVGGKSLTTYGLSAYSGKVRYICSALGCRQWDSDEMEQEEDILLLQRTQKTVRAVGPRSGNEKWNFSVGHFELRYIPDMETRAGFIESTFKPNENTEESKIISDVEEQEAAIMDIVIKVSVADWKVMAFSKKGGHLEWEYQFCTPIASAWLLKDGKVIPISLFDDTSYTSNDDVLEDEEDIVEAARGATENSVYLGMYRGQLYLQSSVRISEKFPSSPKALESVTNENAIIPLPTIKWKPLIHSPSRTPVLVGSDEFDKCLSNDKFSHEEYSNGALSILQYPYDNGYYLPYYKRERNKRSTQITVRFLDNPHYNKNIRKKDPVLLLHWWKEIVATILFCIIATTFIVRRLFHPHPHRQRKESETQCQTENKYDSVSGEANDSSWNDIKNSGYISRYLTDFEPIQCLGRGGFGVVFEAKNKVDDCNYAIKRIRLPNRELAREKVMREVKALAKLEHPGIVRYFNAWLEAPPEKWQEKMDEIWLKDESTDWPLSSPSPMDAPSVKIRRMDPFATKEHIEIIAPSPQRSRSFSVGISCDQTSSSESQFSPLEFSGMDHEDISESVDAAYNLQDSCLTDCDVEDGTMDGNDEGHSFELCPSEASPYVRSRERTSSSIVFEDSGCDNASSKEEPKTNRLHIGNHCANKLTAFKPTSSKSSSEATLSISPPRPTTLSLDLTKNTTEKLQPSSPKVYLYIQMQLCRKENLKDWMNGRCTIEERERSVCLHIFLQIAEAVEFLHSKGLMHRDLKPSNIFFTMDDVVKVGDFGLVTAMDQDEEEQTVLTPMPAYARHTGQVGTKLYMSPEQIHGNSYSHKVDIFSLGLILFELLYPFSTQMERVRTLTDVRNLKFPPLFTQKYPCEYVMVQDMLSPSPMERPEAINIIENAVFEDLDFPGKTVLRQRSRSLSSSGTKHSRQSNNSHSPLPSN
As to the kind of experiment: Western blot for pEIF2A and pNRF2, lentiviral 3R/4R-tau overexpression model. Set-up: endogenous in cells; host or cells: LUHMES neurons (differentiated, human); in A5 transduced with lentivirus for 3R-/4R-tau or mCherry, not for PERK. Format: cell-based. Conditions: for pNRF2 level: 4R-tau overexpressing cells, PERK activator 200 nM or PERK inhibitor 300 nM; for effect on pEIF2A and pNRF2: lentiviral 3R-tau overexpression.

Entries after “also recorded” stand apart in the source; their conditions may differ. Where only a bound is given, the exact number is not on record here.

For `Cn1cc(-c2ccc3c(c2)CCN3C(=O)Cc2cccc(C(F)(F)F)c2)c2c(N)ncnc21` [GSK2606414, reference compound], the “non-toxic concentration effectively modifying EIF2A phosphorylation” value in the data set on LUHMES cells stood at 300 nM. The “ATP concentration, effect of co-treatment” value in the data set on LUHMES neurons is recorded as “slightly improved ATP concentrations at the single annonacin concentration of 12.5 nM; also recorded: significant only at an annonacin concentration of 12.5 nM”. At PERK, the pNRF2 level entry was “not pNRF2”; the “effect on pEIF2A and pNRF2” value is “no significant effect”. Further, the pEIF2A level result at PERK (4R-tau overexpression, PERK inhibitor 300 nM) is reported as “decreased”.
On to `CCN(CC)CCC(=O)N1N=C(c2c(-c3ccccc3)c3cc(Br)ccc3[nH]c2=O)CC1c1ccc(Br)cc1` (centres unmarked) [CCT020312, 6-bromo-3-[5-(4-bromo-phenyl)-1-(3-diethylamino-propionyl)-4,5-dihydro-1H-pyrazol-3-yl]-4-phenyl-1H-quinolin-2-one], for which the “non-toxic concentration effectively modifying EIF2A phosphorylation” value in the data set with LUHMES cells worked out at 200 nM. In addition, the “doses at which detrimental effects of UPR overactivation were seen” value in the data set on LUHMES cells (in vitro) was greater than 3 µM. Besides, the “ATP concentration, effect of co-treatment” value in the data set on LUHMES neurons was “significant improvement”. Besides, on PERK, the pNRF2 level entry is given as “significantly increased”; the “effect on pEIF2A and pNRF2” value is “no significant effect”. The pEIF2A level result at PERK (lentiviral 3R or 4R-tau overexpression, PERK activator 200 nM) is listed as “did not increase”.
